Test system: male db/db mice
Test: Antidiabetic efficacy of oral compound in male db/db mice (nonfasting serum glucose and triglycerides after 14 days)
Format: in vivo
Settings: for Serum triglycerides, Mean ± SEM / Serum glucose, Mean ± SD: 100 mg/kg/day oral gavage once daily for 2 weeks, nonfasting serum, N = 5 mice/group; for Serum triglycerides, Mean ± SEM: vehicle 220.8 ± 62.1; for Serum glucose, Mean ± SD: vehicle 735.0 ± 66.0; for Effect on nonfasting serum glucose relative to vehicle-treated mice (in words) / Effect on nonfasting serum triglycerides relative to vehicle-treated mice (in words): 100 mg/kg/day oral, 2 weeks
From the text: Male db/db mice have a defect in the receptor for the appetite-regulating protein leptin and consequently develop hyperphagia, obesity, insulin resistance, hyperglycemia, and hypertriglyceridemia. Furthermore, male db/db mice undergo progressive islet failure, resulting in a transition from hyperinsulinemia to insulin deficiency.
Male db/db mice (10 weeks old) were divided into weight-matched groups of 5 mice each. Age-matched male C57BL/6 mice were used as lean control animals. Mice received once-daily oral (gavage) doses of the vehicle (1% hydroxypropylmethylcellulose in water), Compound BI, Compound CF, or Compound DN for two weeks. Treatment groups and drug doses were as follows. • 1. Vehicle • 2. Compound BI 100 mg/kg/day • 3. Compound CF 100 mg/kg/day • 4. Compound DN 100 mg/kg/day
Nonfasting blood samples were collected after 14 days of treatment for determination of serum glucose, triglycerides, and free fatty acids.

| SMILES | Serum triglycerides, Mean ± SEM [mg/dL] | Serum glucose, Mean ± SD [mg/dL] | Effect on nonfasting serum glucose relative to vehicle-treated mice (in words) | Effect on nonfasting serum triglycerides relative to vehicle-treated mice (in words) |
| --- | --- | --- | --- | --- |
| Cc1cccc(C)c1COc1cccc(C(=O)CCC(=O)O)c1 [Compound BI, 4-(3-(2,6-Dimethylbenzyloxy)phenyl)-4-oxobutyric acid] | 85.8 ± 13.0 | 257.0 ± 57.0 | significantly reduced | significantly reduced |
| Cc1cccc(C)c1COc1cccc(CC(=O)O)c1 [Compound CF, 3-(2,6-Dimethylbenzyloxy)phenylacetic acid] | 90.5 ± 17.4 | 441.0 ± 162.0 | significantly reduced | significantly reduced |
| O=C(O)Cc1cccc(OCc2ccc(C(F)(F)F)cc2C(F)(F)F)c1 [Compound DN, 3-(2,4-Bis(trifluoromethyl)benzyloxy)phenylacetic acid] | 157.2 ± 40.3 | 396.0 ± 84.0 | significantly reduced | significantly reduced |
